“Also recorded” adds a separate entry of the source.
Experiments:
[1] = system: MEFs; assay: Translation rates by 35S-methionine labelling in r15a mut/mut or r15b mut/mut MEFs; format: cell-based, mouse
Experimental: HeLa cells were maintained in Dulbecco's Modified Eagle's Media (DMEM) supplemented with penicillin, streptomycin, glutamine and 10% fetal bovine serum (FBS). Ppp1r15a −/− and Ppp1r15b −/− MEF cells were maintained in DMEM supplemented with penicillin, streptomycin, glutamine, 55 μM β-mercaptoethanol, 1X non-essential amino acids (Sigma) and 10% FBS.
Cells (90,000 cells/ml) were plated in 12-well plates, treated as indicated, labelled with 100 μCi/ml ^35S-methionine (Hartmann Analytic) for 10 minutes at 37° C., washed with ice-cold PBS and lysed in 120 μl Laemmli Buffer. Lysates were boiled at 95° C. for 5 minutes, sonicated and resolved on 4-12% Bolt Bis-Tris Plus Gels (Thermo Fisher Scientific). Gels were then stained with InstantBlue (Expedeon) and analyzed by phosphorimaging.

[2] = system: HD-N171-82Q mice; assay: Huntington's disease mouse model, motor performance (rotarod); format: in vivo; conditions: 2 mg/kg orally daily for 4 weeks
Experimental: To assess the efficacy of a compound of Example 1 in ameliorating a disease phenotype, 28-day old transgenic mice or littermate control were orally administered daily with a compound of Example 1 (2 mg/kg) or vehicle for a duration of 4 weeks. Disease progression was evaluated by weighting the mice during the treatment and by assessing their motor performances after 4 weeks of treatment.
Eight weeks old HD-N171-82Q mice and their wild-type littermates were first habituated for 1 min on a static rotor and 1 min at constant speed (4 rpm). Habituation was repeated. The test session consisted of four trials with 15 min intervals in between. For each trial 5 mice were placed on an accelerating rotor (4 to 40 rpm) and the latency to fall was recorded, with a maximum limit for individual animal set at 300 s.
To produce an experimental group HD-N171-82Q transgenic males were crossed with C3H/B6 F1 wild type females. 4 weeks old transgenic males and their wild type littermate male controls were randomized in different groups and treated with TST3 for 4 weeks.
TST3 treatment of HD-N171-82Q transgenic males and their wild type littermate male controls started at 4 weeks of age and was continued for 4 weeks before the test. […] In each trial mice were allowed to run on an accelerating rod from 4 to 40 rpm for up to 300 seconds and the latency to fall was counted. […]

[H]/N=C(\N)NN=Cc1cccc(Cl)c1Cl [Example 1, (E)-2-(2,3-dichlorobenzylidene)hydrazine-1-carboximidamide]
translation attenuation upon inactivation of R15A [1]: rendered persistent | motor performance / disease prevention in Huntington's disease mice [2]: ameliorates Huntington's disease; also recorded: prevented the motor performances impairment; also recorded: preventing disease

From patent US11364211B2, “Methods for selecting phosphatase selective and non-selective phosphatase inhibitors” (MEDICAL RESEARCH COUNCIL, priority 2015, dated 2022)
